What follows are compounds tested against SARS2 coronavirus 3CL protease (Severe acute respiratory syndrome coronavirus 2 (2019-nCoV) (SARS-CoV-2), UniProt P0DTD1) (assay: SARS2 Coronavirus 3CL Protease Assay (FRET)). Conditions: SARS2 3CLPro FRET assay; 5 nM enzyme, 30 min pre-incubation with compound, 15 uM peptide substrate, 4 h room temperature.
Type: biochemical

Compared with `COC(=O)N[C@H](C(=O)N1C[C@H]2[C@@H]([C@H]1C(=O)N[C@@H](CCC(C)(F)F)C(=O)C(=O)NC1CC1)C2(F)F)C(C)(C)C` [Example 111, methyl ((S)-1-((1S,2S,5R)-2-(((S)-1-(cyclopropylamino)-6,6-difluoro-1,2-dioxoheptan-3-yl)carbamoyl)-6,6-difluoro-3-azabicyclo[3.1.0]hexan-3-yl)-3,3-dimethyl-1-oxobutan-2-yl)carbamate], `COC(=O)N[C@H](C(=O)N1C[C@H]2[C@@H]([C@H]1C(=O)N[C@@H](CCC(C)(F)F)C(=O)C(=O)NC1CC1)C21CCOCC1)C(C)(C)C` [Example 60, Methyl ((S)-1-((1R,2S,5S)-2-(((S)-1-(cyclopropylamino)-6,6-difluoro-1,2-dioxoheptan-3-yl)carbamoyl)tetrahydro-3-azaspiro[bicyclo[3.1.0]hexane-6,4′-pyran]-3-yl)-3,3-dimethyl-1-oxobutan-2-yl)carbamate] is 4.6-fold lower in IC50: 88 nM for the first, 19 nM for the second.

Compared with `COC(=O)N[C@H](C(=O)N1CC2(CCCCC2)C[C@H]1C(=O)N[C@@H](CCC(C)(F)F)C(=O)C(=O)NC(C)C)C(C)(C)C` [Example 13, Methyl ((S)-1-((S)-3-(((S)-6,6-difluoro-1-(isopropylamino)-1,2-dioxoheptan-3-yl)carbamoyl)-2-azaspiro[4.5]decan-2-yl)-3,3-dimethyl-1-oxobutan-2-yl)carbamate], `CNC(=O)C(=O)[C@H](CCC(C)(F)F)NC(=O)[C@@H]1CC2(CCCCC2)CN1C(=O)[C@@H](NC(=O)OC)C(C)(C)C` [Example 62, Methyl ((S)-1-((S)-3-(((S)-6,6-difluoro-1-(methylamino)-1,2-dioxoheptan-3-yl)carbamoyl)-2-azaspiro[4.5]decan-2-yl)-3,3-dimethyl-1-oxobutan-2-yl)carbamate] is 5.6-fold lower in IC50: 49 nM for the first, 8.8 nM for the second.

Compared with `COC(=O)N[C@H](C(=O)N1CC2(CCCC2)C[C@H]1C(=O)N[C@@H](CCC(C)(F)F)C(=O)C(=O)NC1CC1)C(C)(C)C` [Example 10, Methyl ((S)-1-((S)-3-(((S)-1-(cyclopropylamino)-6,6-difluoro-1,2-dioxoheptan-3-yl)carbamoyl)-2-azaspiro[4.4]nonan-2-yl)-3,3-dimethyl-1-oxobutan-2-yl)carbamate], `COC(=O)N[C@H](C(=O)N1CCC2(CCCC2)CC1C(=O)N[C@@H](CCC(C)(F)F)C(=O)C(=O)NC1CC1)C(C)(C)C` (single isomer, unassigned) [Example 34, Methyl ((S)-1-(R or S)-(7-(((S)-1-(cyclopropylamino)-6,6-difluoro-1,2-dioxoheptan-3-yl)carbamoyl)-8-azaspiro[4.5]decan-8-yl)-3,3-dimethyl-1-oxobutan-2-yl)carbamateazaspiro[4.5]decan-8-yl)-3,3-dimethyl-1-oxobutan-2-yl)carbamate] is 3.5-fold lower in IC50: 26 nM for the first, 7.4 nM for the second. The second is the more potent here.

Going from `COC(=O)N[C@H](C(=O)N1C(C(=O)N[C@@H](CCC(C)(F)F)C(=O)C(=O)NC2CC2)[C@H]2CC[C@@H]1C2)C(C)(C)C` (single isomer, unassigned) [Example 77, Methyl ((S)-1-((1R, 3(R or S),4S)-3-(((S)-1-(cyclopropylamino)-6,6-difluoro-1,2-dioxoheptan-3-yl)carbamoyl)-2-azabicyclo[2.2.1]heptan-2-yl)-3,3-dimethyl-1-oxobutan-2-yl)carbamate] to `COC(=O)N[C@H](C(=O)N1C2CCC(CC2)[C@H]1C(=O)N[C@@H](CCC(C)(F)F)C(=O)C(=O)NC1CC1)C(C)(C)C` [Example 59, Methyl ((S)-1-((S)-3-(((S)-1-(cyclopropylamino)-6,6-difluoro-1,2-dioxoheptan-3-yl)carbamoyl)-2-azabicyclo[2.2.2]octan-2-yl)-3,3-dimethyl-1-oxobutan-2-yl)carbamate], the IC50 falls from 133 nM to 37 nM (3.6-fold). The second is the more potent here.

Compared with `COC(=O)N[C@H](C(=O)N1CCC2(CCC2)CC1C(=O)N[C@@H](CCC(C)(F)F)C(=O)C(=O)NC1CC1)C(C)(C)C` (single isomer, unassigned) [Example 41, Methyl ((S)-1-((R or S)-(6-(((S)-1-(cyclopropylamino)-6,6-difluoro-1,2-dioxoheptan-3-yl)carbamoyl)-7-azaspiro[3.5]nonan-7-yl)-3,3-dimethyl-1-oxobutan-2-yl)carbamate], `COC(=O)N[C@H](C(=O)N1CC2(CCC(F)(F)CC2)CC1C(=O)N[C@@H](CCC(C)(F)F)C(=O)C(=O)NC1CC1)C(C)(C)C` (single isomer, unassigned) [Example 56, Methyl ((S)-1-((R or S)-(3-(((S)-1-(cyclopropylamino)-6,6-difluoro-1,2-dioxoheptan-3-yl)carbamoyl)-8,8-difluoro-2-azaspiro[4.5]decan-2-yl)-3,3-dimethyl-1-oxobutan-2-yl)carbamate] is 22-fold higher in IC50: 13 nM for the first, 291 nM for the second.

First: CNC(=O)C(=O)[C@H](CCC(C)(F)F)NC(=O)C1CC(C(F)(F)F)CCN1C(=O)C(NC(=O)OC)C12CC(F)(C1)C2 (single isomer, unassigned) [Example 115, methyl ((R or S)-2-((2(S or R),4(R or S))-2-(((S)-6,6-difluoro-1-(methylamino)-1,2-dioxoheptan-3-yl)carbamoyl)-4-(trifluoromethyl)piperidin-1-yl)-1-(3-fluorobicyclo[1.1.1]pentan-1-yl)-2-oxoethyl)carbamate]
Second: CNC(=O)C(=O)[C@H](CCC(C)(F)F)NC(=O)C1C(C2CC2C)CCN1C(=O)[C@@H](NC(=O)OC)C(C)(C)C (single isomer, unassigned) [Example 107, methyl ((S)-1-((2(S or R),3(S or R))-2-(((S)-6,6-difluoro-1-(methylamino)-1,2-dioxoheptan-3-yl)carbamoyl)-3-((1(S or R),2(R or S))-2-methylcyclopropyl)pyrrolidin-1-yl)-3,3-dimethyl-1-oxobutan-2-yl)carbamate]
The IC50 of the first is 2.5-fold higher: 35 nM for the first, 14 nM for the second. The second is the more potent here.

First: COC(=O)N[C@H](C(=O)N1CC2(CCCCC2)C[C@H]1C(=O)N[C@@H](CCC(C)(F)F)C(=O)C(=O)NCc1ccccc1)C(C)(C)C [Example 7, Methyl ((S)-1-((S)-3-(((S)-1-(benzylamino)-6,6-difluoro-1,2-dioxoheptan-3-yl)carbamoyl)-2-azaspiro[4.5]decan-2-yl)-3,3-dimethyl-1-oxobutan-2-yl)carbamate]
Second: CCNC(=O)C(=O)[C@H](CCC(C)(F)F)NC(=O)[C@@H]1CC2(CCCCC2)CN1C(=O)[C@@H](NC(=O)OC)C(C)(C)C [Example 8, Methyl ((S)-1-((S)-3-(((S)-1-(ethylamino)-6,6-difluoro-1,2-dioxoheptan-3-yl)carbamoyl)-2-azaspiro[4.5]decan-2-yl)-3,3-dimethyl-1-oxobutan-2-yl)carbamate]
The IC50 of the first is 1.6-fold lower: 11 nM for the first, 18 nM for the second.

Compared with `CNC(=O)C(=O)[C@H](CCC(C)(F)F)NC(=O)[C@@H]1[C@@H]2[C@H](CN1C(=O)[C@@H](NC(=O)OC)C(C)(C)C)CC2(F)F` [Example 92, methyl ((S)-1-((1S,2S,5R)-2-(((S)-6,6-difluoro-1-(methylamino)-1,2-dioxoheptan-3-yl)carbamoyl)-7,7-difluoro-3-azabicyclo[3.2.0]heptan-3-yl)-3,3-dimethyl-1-oxobutan-2-yl)carbamate], `CNC(=O)C(=O)[C@H](CCC(C)(F)F)NC(=O)[C@@H]1[C@@H]2[C@H](CN1C(=O)[C@@H](NC(=O)OC)C(C)(C)C)C2(C)C` [Example 39, Methyl ((S)-1-((1R,2S,5S)-2-(((S)-6,6-difluoro-1-(methylamino)-1,2-dioxoheptan-3-yl)carbamoyl)-6,6-dimethyl-3-azabicyclo[3.1.0]hexan-3-yl)-3,3-dimethyl-1-oxobutan-2-yl)carbamate] is 2.4-fold lower in IC50: 29 nM for the first, 12 nM for the second.

`COC(=O)N[C@H](C(=O)N1CC(C2CCOC2)C[C@H]1C(=O)N[C@@H](CCC(C)(F)F)C(=O)C(=O)NC1CC1)C(C)(C)C` (single isomer, unassigned) [Example 54, Methyl ((S)-1-((2S,4(R or S))-2-(((S)-1-(cyclopropylamino)-6,6-difluoro-1,2-dioxoheptan-3-yl)carbamoyl)-4-((R or S)-tetrahydrofuran-3-yl)pyrrolidin-1-yl)-3,3-dimethyl-1-oxobutan-2-yl)carbamate] and `COC(=O)N[C@H](C(=O)N1CC2(CCCCC2)C[C@H]1C(=O)N[C@@H](CCC(C)(F)F)C(=O)C(=O)NC1CCCCC1)C(C)(C)C` [Example 16, Methyl ((S)-1-((S)-3-(((S)-1-(cyclohexylamino)-6,6-difluoro-1,2-dioxoheptan-3-yl)carbamoyl)-2-azaspiro[4.5]decan-2-yl)-3,3-dimethyl-1-oxobutan-2-yl)carbamate] are within 1.5-fold of each other in IC50: 201 nM for the first, 136 nM for the second.

Compared with `COC(=O)N[C@H](C(=O)N1C[C@@H]2CCC[C@@H]2[C@H]1C(=O)N[C@@H](CCC(C)(F)F)C(=O)C(=O)NCC(F)(F)F)C(C)(C)C` [Example 119, methyl ((S)-1-((1S,3aR,6aS)-1-(((S)-6,6-difluoro-1,2-dioxo-1-((2,2,2-trifluoroethyl)amino)heptan-3-yl)carbamoyl)hexahydrocyclopenta[c]pyrrol-2(1H)-yl)-3,3-dimethyl-1-oxobutan-2-yl)carbamate], `CCOC(=O)N[C@H](C(=O)N1C[C@@H]2CCC[C@@H]2[C@H]1C(=O)N[C@@H](CCC(C)(F)F)C(=O)C(=O)NC)C(C)(C)C` [Example 120, ethyl ((S)-1-((1S,3aR,6aS)-1-(((S)-6,6-difluoro-1-(methylamino)-1,2-dioxoheptan-3-yl)carbamoyl)hexahydrocyclopenta[c]pyrrol-2(1H)-yl)-3,3-dimethyl-1-oxobutan-2-yl)carbamate] is 3.7-fold lower in IC50: 77 nM for the first, 21 nM for the second.

Source: patent publication US20250223259A1, “PROTEASE INHIBITORS FOR TREATING OR PREVENTING CORONAVIRUS INFECTION” (Merck Sharp & Dohme LLC, priority 2022, published 2025)
